Patent US20240092835A1, “NOVEL PEPTIDES CAPABLE OF ALTERING NK CELL ACTIVITY” (Massachusetts Institute of Technology, priority 2022, published 2024)

Columns and labels:
NKG2A+/NKG2C− NK cells = assay: NK cell activation markers in NKG2A+/NKG2C- NK cells incubated with peptide and K562 expressing HLA-E (inhibition); type: cell-based, human; settings: for percentage of CCL3+ NK cells / percentage of CD107a+ NK cells / percentage of IFNG+ NK cells / percentage of TNF+ NK cells: NKG2A+/NKG2C- NK cells, K562/HLA-E
Method: (§1) A human immortalized myelogenous leukemia cell line (K562), which expresses HLA-E was incubated with novel peptides (Table 1) derived from the human proteome or human cytomegalovirus proteome. […] Controls assessments were also performed using NKG2A−/NKG2C− cells (Tables 10-13). Inhibition was indicated by a decrease in percent cells positive for cell surface markers, while activation was indicated by an increase in percent cells positive for cell surface markers.

HLA-E = target: T1, HLA-E (Homo sapiens, UniProt P13747); assay: HLA-E surface stabilization assay with RMA-S/HLA-E cells; type: cell-based; settings: 30 μM peptide, 16 hours; for HLA-E surface expression stability (GeoMFI): anti-HLA-E antibody
T1 construct: expressed in transfected cells; host or cells: RMA-S/HLA-E cells (antigen processing-defective lymphoma cell line)
Method: HLA-E surface expression was assessed by measuring geometric mean fluorescence intensity (GeoMFI) in RMA-S cells following immunofluorescence staining with an anti-HLA-E antibody (Table 14). Increased GeoMFI was indicative of increased HLA-E surface expression stability following novel peptide exposures (FIG. 3).

NKG2A−/NKG2C+ NK cells = assay: NK cell activation markers in NKG2A-/NKG2C+ NK cells incubated with peptide and K562 expressing HLA-E (activation); type: cell-based, human; settings: for percentage of CCL3+ NK cells / percentage of CD107+ NK cells / percentage of IFNG+ NK cells / percentage of TNF+ NK cells: NKG2A-/NKG2C+ NK cells, K562/HLA-E
Method: as §1

NKG2A−/NKG2C− NK cells = assay: NK cell activation markers in control NKG2A-/NKG2C- NK cells incubated with peptide and K562 expressing HLA-E; type: cell-based, human
Method: as §1

[1] = K562 expressing HLA-E, CD107a, IFNG, TNF, CCL3

T1 sequence (P13747 22-358): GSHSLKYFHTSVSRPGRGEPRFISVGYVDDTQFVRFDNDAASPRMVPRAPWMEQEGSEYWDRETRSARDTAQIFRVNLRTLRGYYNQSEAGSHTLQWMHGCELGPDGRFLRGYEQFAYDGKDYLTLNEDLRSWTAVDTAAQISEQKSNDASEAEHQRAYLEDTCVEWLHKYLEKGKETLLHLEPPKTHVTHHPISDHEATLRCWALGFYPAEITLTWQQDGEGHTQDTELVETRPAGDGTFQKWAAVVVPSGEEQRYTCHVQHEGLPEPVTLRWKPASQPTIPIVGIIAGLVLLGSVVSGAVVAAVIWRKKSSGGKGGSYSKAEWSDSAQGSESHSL
T1 sequence (P61769 21-119 partner): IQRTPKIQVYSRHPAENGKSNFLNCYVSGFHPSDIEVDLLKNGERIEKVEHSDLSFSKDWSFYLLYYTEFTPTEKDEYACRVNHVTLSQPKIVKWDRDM

## FLPNRSLLF [human8, peptide SLC52A3 354-362 derived from the human proteome]
NKG2A+/NKG2C− NK cells; [1]
  effect on NKG2A+/NKG2C− NK cell inhibition (in words): mild inhibitory effects
NKG2A+/NKG2C− NK cells; Trial 1
  percentage of CCL3+ NK cells: 39.5%
  percentage of CD107a+ NK cells: 19.1%
  percentage of IFNG+ NK cells: 5.56%
  percentage of TNF+ NK cells: 1.84%
NKG2A+/NKG2C− NK cells; Trial 2
  percentage of CCL3+ NK cells: 56%
  percentage of CD107a+ NK cells: 26.4%
  percentage of IFNG+ NK cells: 10.5%
  percentage of TNF+ NK cells: 4.8%
NKG2A+/NKG2C− NK cells; Trial 3
  percentage of CCL3+ NK cells: 38.2%
  percentage of CD107a+ NK cells: 27.5%
  percentage of IFNG+ NK cells: 14.7%
  percentage of TNF+ NK cells: 6.96%
NKG2A+/NKG2C− NK cells; Trial 4
  percentage of CCL3+ NK cells: 32.8%
  percentage of CD107a+ NK cells: 28.2%
  percentage of IFNG+ NK cells: 12.7%
  percentage of TNF+ NK cells: 7.59%
NKG2A+/NKG2C− NK cells; Trial 5
  percentage of CCL3+ NK cells: 33.3%
  percentage of CD107a+ NK cells: 17.7%
  percentage of IFNG+ NK cells: 7.1%
  percentage of TNF+ NK cells: 3.6%
NKG2A+/NKG2C− NK cells; Trial 6
  percentage of CCL3+ NK cells: 27.1%
  percentage of CD107a+ NK cells: 20%
  percentage of IFNG+ NK cells: 6.74%
  percentage of TNF+ NK cells: 4.07%
HLA-E; Trial 1
  HLA-E surface expression stability (GeoMFI): 1066 GeoMFI
HLA-E; Trial 2
  HLA-E surface expression stability (GeoMFI): 813 GeoMFI
HLA-E; Trial 3
  HLA-E surface expression stability (GeoMFI): 1049 GeoMFI
HLA-E; Trial 4
  HLA-E surface expression stability (GeoMFI): 1654 GeoMFI
HLA-E; approximate value
  HLA-E surface expression stabilization strength, approximate GeoMFI: approximately 1×10^3 GeoMFI
NKG2A−/NKG2C+ NK cells; [1]
  effect on NKG2A−/NKG2C+ NK cell activation (in words): strong activating effects
NKG2A−/NKG2C+ NK cells; Trial 1
  percentage of CCL3+ NK cells: 75.5%
  percentage of CD107+ NK cells: 73.7%
  percentage of IFNG+ NK cells: 58.6%
  percentage of TNF+ NK cells: 45.1%
NKG2A−/NKG2C+ NK cells; Trial 2
  percentage of CCL3+ NK cells: 89%
  percentage of CD107+ NK cells: 82.1%
  percentage of IFNG+ NK cells: 74.8%
  percentage of TNF+ NK cells: 64%
NKG2A−/NKG2C+ NK cells; Trial 3
  percentage of CCL3+ NK cells: 84.1%
  percentage of CD107+ NK cells: 84.3%
  percentage of IFNG+ NK cells: 74.5%
  percentage of TNF+ NK cells: 63.7%
NKG2A−/NKG2C+ NK cells; Trial 4
  percentage of CCL3+ NK cells: 65.3%
  percentage of CD107+ NK cells: 64.8%
  percentage of IFNG+ NK cells: 54%
  percentage of TNF+ NK cells: 43.7%
NKG2A−/NKG2C+ NK cells; Trial 5
  percentage of CCL3+ NK cells: 74.6%
  percentage of CD107+ NK cells: 70.7%
  percentage of IFNG+ NK cells: 62.3%
  percentage of TNF+ NK cells: 57.1%
NKG2A−/NKG2C+ NK cells; Trial 6
  percentage of CCL3+ NK cells: 57%
  percentage of CD107+ NK cells: 53.1%
  percentage of IFNG+ NK cells: 43.8%
  percentage of TNF+ NK cells: 31.7%
NKG2A−/NKG2C− NK cells; Trial 1
  percentage CCL3+ NK cells: 33.5%
  percentage CD107+ NK cells: 27.7%
  percentage TNF+ NK cells: 4.82%
  percentage of IFNG+ NK cells: 14.7%
NKG2A−/NKG2C− NK cells; Trial 2
  percentage CCL3+ NK cells: 60.3%
  percentage CD107+ NK cells: 36.2%
  percentage TNF+ NK cells: 10.5%
  percentage of IFNG+ NK cells: 28.8%
NKG2A−/NKG2C− NK cells; Trial 3
  percentage CCL3+ NK cells: 52.4%
  percentage CD107+ NK cells: 47.3%
  percentage TNF+ NK cells: 16.5%
  percentage of IFNG+ NK cells: 38%
NKG2A−/NKG2C− NK cells; Trial 4
  percentage CCL3+ NK cells: 32%
  percentage CD107+ NK cells: 28.6%
  percentage TNF+ NK cells: 9.61%
  percentage of IFNG+ NK cells: 18.6%
NKG2A−/NKG2C− NK cells; Trial 5
  percentage CCL3+ NK cells: 29.2%
  percentage CD107+ NK cells: 20.2%
  percentage TNF+ NK cells: 6.07%
  percentage of IFNG+ NK cells: 14.2%
NKG2A−/NKG2C− NK cells; Trial 6
  percentage CCL3+ NK cells: 24.8%
  percentage CD107+ NK cells: 19.3%
  percentage TNF+ NK cells: 3.78%
  percentage of IFNG+ NK cells: 10.9%
